Source: US9708314B2, “Heterocyclic amide compound” (NISSAN CHEMICAL INDUSTRIES, LTD., priority 2013, dated 2017)

Key:
Assay type in all cases: in vivo
[1] = test system: directly sowed Oryza sativa; assay: Test Example 3: effect on crop by application to foliage (Wagner pot, water depth 0.1-0.5 cm); details: Nineteenth Table; application to foliage; application herbicide amount 320 g/ha
How it was run: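 Rice-field weeds and directly sown rice were grown 14 days in flooded alluvial soil (water depth 0.1–0.5 cm) at 25–30 °C in a greenhouse. An emulsion formulation diluted to the stated g/ha rate was sprayed onto stems and leaves. Effects were scored on a 0–5 scale (herbicidal ratio bands) three weeks after treatment.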

Scirpus juncoides [2] = assay: Test Example 2: herbicidal activity, application during weed generation in submerged conditions; details: Eighteenth Table; application herbicide amount 320 g/ha
How it was run: (§1)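 Alluvial soil in Wagner pots flooded to 4 cm water depth; seeds sown mixed, grown in greenhouse at 25–30 °C. At one- to two-leaf stage, emulsion diluted with water to the set rate (g/ha) was applied to the water surface. Effect scored 0–5 by herbicidal ratio three weeks later.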

[3] = test system: Echinochloa oryzacola Vasing.; assay: as above; details: Eighteenth Table; application herbicide amount 320 g/ha
How it was run: as §1

Monochoria vaginalis [4] = assay: as above; details: Eighteenth Table; application herbicide amount 320 g/ha
How it was run: as §1

Scirpus juncoides [5] = assay: Test Example 1: herbicidal activity, application before weed generation in submerged conditions; details: Application herbicide amount 320 g/ha; Seventeenth Table
How it was run: (§2)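 Alluvial soil in Wagner pots flooded to 4 cm water depth; weed seeds sown and 2.5 leaf stage rice seedlings transplanted. Emulsion diluted in water applied to water surface on sowing day at stated g/ha. Greenhouse 25° C. to 30° C.; effects scored 0–5 by herbicidal ratio after three weeks.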

[6] = test system: Echinochloa oryzacola Vasing.; assay: as above; details: Application herbicide amount 320 g/ha; Seventeenth Table
How it was run: as §2

Monochoria vaginalis [7] = assay: as above; details: Application herbicide amount 320 g/ha; Seventeenth Table
How it was run: as §2

Row | Compound | b (effect on crop grade) [1] | B (Scirpus juncoides) herbicidal ratio grade (Scirpus juncoides [2]) | A (Echinochloa oryzicola Vasing.) herbicidal ratio grade [3] | C (Monochoria vaginalis) herbicidal ratio grade (Monochoria vaginalis [4]) | B: Scirpus juncoides (herbicidal effect grade) (Scirpus juncoides [5]) | A: Echinochloa oryzicola Vasing. (herbicidal effect grade) [6] | C: Monochoria vaginalis (herbicidal effect grade) (Monochoria vaginalis [7])
1 | COC1CCC(c2nnc3c(C(=O)Nc4nnc(C)o4)ccc(C(F)(F)F)n23)CC1 (centres unmarked) [1-169] | 1 (Herbicidal ratio of 5% or more and less than 20%) | 4 (Herbicidal ratio of 70% or more and less than 90%) | 3 (Herbicidal ratio of 40% or more and less than 70%) | 4 (Herbicidal ratio of 70% or more and less than 90%) | 4 (Herbicidal ratio of 70% or more and less than 90%) | 5 (Herbicidal ratio of 90% or more (almost completely withered)) | 4 (Herbicidal ratio of 70% or more and less than 90%)
2 | Cn1nnnc1NC(=O)c1ccc(C(F)(F)F)n2c(C3CC3)nnc12 [2-005] | 2 (Herbicidal ratio of 20% or more and less than 40%) | 3 (Herbicidal ratio of 40% or more and less than 70%) | 5 (Herbicidal ratio of 90% or more (almost completely withered)) | 4 (Herbicidal ratio of 70% or more and less than 90%) | 5 (Herbicidal ratio of 90% or more (almost completely withered)) | 5 (Herbicidal ratio of 90% or more (almost completely withered)) | 5 (Herbicidal ratio of 90% or more (almost completely withered))
3 | CCC(CC)c1nnc2c(C(=O)Nc3nnnn3C)ccc(C(F)(F)F)n12 [2-006] | 5 (Herbicidal ratio of 90% or more (almost completely withered)) | 5 (Herbicidal ratio of 90% or more (almost completely withered)) | 5 (Herbicidal ratio of 90% or more (almost completely withered)) | 5 (Herbicidal ratio of 90% or more (almost completely withered)) | 5 (Herbicidal ratio of 90% or more (almost completely withered)) | 5 (Herbicidal ratio of 90% or more (almost completely withered)) | 5 (Herbicidal ratio of 90% or more (almost completely withered))
4 | Cn1nnnc1NC(=O)c1ccc(C(F)(F)F)n2c(-c3ccccc3)nnc12 [2-007] | 4 (Herbicidal ratio of 70% or more and less than 90%) | 4 (Herbicidal ratio of 70% or more and less than 90%) | 4 (Herbicidal ratio of 70% or more and less than 90%) | 4 (Herbicidal ratio of 70% or more and less than 90%) | 5 (Herbicidal ratio of 90% or more (almost completely withered)) | 5 (Herbicidal ratio of 90% or more (almost completely withered)) | 5 (Herbicidal ratio of 90% or more (almost completely withered))
5 | Cn1nnnc1NC(=O)c1ccc(C(F)(F)F)n2c(Cl)nnc12 [2-008] | 0 (Herbicidal ratio of 5% or less (almost no effect)) | 2 (Herbicidal ratio of 20% or more and less than 40%) | 3 (Herbicidal ratio of 40% or more and less than 70%) | 3 (Herbicidal ratio of 40% or more and less than 70%) | 4 (Herbicidal ratio of 70% or more and less than 90%) | 4 (Herbicidal ratio of 70% or more and less than 90%) | 4 (Herbicidal ratio of 70% or more and less than 90%)
